Measured values published in patent US8039668B2, “Naphthalene-based inhibitors of anti-apoptotic proteins” (Burnham Institute for Medical Research, priority 2008, dated 2011).
Read-outs that look alike come from different tables or passages of the source.

Tests used:
BCL-XL [1] = target: T1, BCL-XL (Homo sapiens, UniProt Q07817); test: 1D 1H-NMR binding assay; design: key to 1D-^1H NMR: +++, Very Active; ++, Active; +, Mild; −, Weak; conditions: for 1D-^1H NMR: BCL-XL 25 μM, compound 200 μM; for 1D ^1H-NMR Binding Assay (BCL-XL): Table 9
Method: By observing the aliphatic region of the spectra, binding could be readily detected due to chemical shift changes in active site methyl groups of Ile, Leu, Thr, Val or Ala (region between −0.8 and 0.3 ppm). All experiments were performed with a 600 MHz spectrometer Bruker Avance 600 equipped with four rf channels and z-axis pulse-field gradients.
Target sequence in this assay (Q07817 whole entry): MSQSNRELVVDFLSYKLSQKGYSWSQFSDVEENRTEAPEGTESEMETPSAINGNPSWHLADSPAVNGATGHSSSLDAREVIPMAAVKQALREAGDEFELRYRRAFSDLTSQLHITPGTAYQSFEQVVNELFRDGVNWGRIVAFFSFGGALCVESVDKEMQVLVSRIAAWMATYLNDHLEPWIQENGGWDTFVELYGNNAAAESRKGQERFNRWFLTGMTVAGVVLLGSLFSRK

Bcl-2 = Bcl-2 (Homo sapiens, UniProt P10415); test: Competitive fluorescence polarization assay (FPA), Bim BH3 peptide; type: binding
Bcl-2, sequence (P10415 whole entry): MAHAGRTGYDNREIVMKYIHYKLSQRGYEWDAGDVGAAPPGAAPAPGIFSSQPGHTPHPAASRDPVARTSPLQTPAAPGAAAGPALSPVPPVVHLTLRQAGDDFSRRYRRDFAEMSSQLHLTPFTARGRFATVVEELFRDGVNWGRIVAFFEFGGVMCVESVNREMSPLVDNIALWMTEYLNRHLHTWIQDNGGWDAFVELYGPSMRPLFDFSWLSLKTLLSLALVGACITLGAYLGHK

Mcl-1 = Mcl-1 (Homo sapiens, UniProt Q07820); test: as above; type: binding
Mcl-1, sequence (Q07820 whole entry): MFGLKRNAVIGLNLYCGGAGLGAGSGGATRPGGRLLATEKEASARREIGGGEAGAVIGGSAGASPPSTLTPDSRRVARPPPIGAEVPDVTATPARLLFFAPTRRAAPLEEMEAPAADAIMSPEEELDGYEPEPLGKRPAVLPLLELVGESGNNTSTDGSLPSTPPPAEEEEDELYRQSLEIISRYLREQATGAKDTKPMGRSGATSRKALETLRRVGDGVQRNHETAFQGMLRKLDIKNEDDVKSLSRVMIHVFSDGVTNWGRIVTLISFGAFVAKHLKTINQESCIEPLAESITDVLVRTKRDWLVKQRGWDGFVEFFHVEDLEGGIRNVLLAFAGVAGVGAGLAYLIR

Bfl-1 = target: T2, Bfl-1 (Homo sapiens, UniProt Q16548); test: Competitive fluorescence polarization assay (FPA); type: binding
T2 sequence (Q16548 1-175): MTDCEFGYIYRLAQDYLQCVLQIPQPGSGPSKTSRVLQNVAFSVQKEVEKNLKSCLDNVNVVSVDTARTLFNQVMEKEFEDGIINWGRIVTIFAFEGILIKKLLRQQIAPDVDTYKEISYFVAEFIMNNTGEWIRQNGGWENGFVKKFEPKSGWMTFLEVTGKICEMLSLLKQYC

BCL-XL [2] = target: T1, BCL-XL; test: Isothermal titration calorimetry (ITC); type: binding
Method: Titrations were performed using a VP-ITC or ITC200 calorimeter from Microcal (Northampton, Mass.). BCL-XL was used at concentrations between 25 and 100 μM in 20 mM sodium phosphate buffer (pH 7.4) and 5-10% DMSO. Titrants were used at concentrations 10-15 fold of that of the protein in the same buffer. Titrations were carried out at 25° C. Data were analyzed using Microcal Origin software provided by the ITC manufacturer (Microcal, Northampton, Mass.).
Target sequence in this assay (Q07817 whole entry): as the sequence (Q07817 whole entry) above

H1299 cell line = test: Cell viability, ATP-LITE assay; type: cell-based, human; conditions: Homo sapiens
Method in brief: (§1)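 Human cancer lines were seeded at 2000 (H460, H1299), 3000 (PC3) or 10,000 (RS11846) cells/well in F12 or RPMI1640 with 5% FBS. Compounds were added in 0.1% DMSO 24 h after seeding. Viability was read by ATP-LITE luminescence after 72 h and normalized to DMSO controls.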

PC3ML cells = test: Cell viability, ATP-LITE assay; type: cell-based, human; conditions: Homo sapiens, PC3-ML
Method in brief: as §1

[3] = tested on: H460 human lung cell line; test: Cell viability, ATP-LITE assay; type: cell-based; conditions: Homo sapiens
Method in brief: as §1

[4] = tested on: human lymphoma RS11846 cell line; test: Apoptosis, Annexin V-FITC and propidium iodide assay; type: cell-based; conditions: Homo sapiens
Method: The apoptotic activity of the compounds against RS11846 cells was assessed by staining with Annexin V- and propidium iodide (PI). Lymphoma cell line, RS11846, was cultured in RPMI 1640 medium (Mediatech Inc., Herndon, Va. 20171) containing 10% fetal bovine serum (Mediatech Inc., Herndon, Va. 20171) and Penicillin/Streptomycin (Mediatech Inc., Herndon, Va. 20171). […] The percentage of viable cells was determined by FITC-Annexin V- and propidium iodide (PI)-labeling, using an Apoptosis Detection kit (BioVision Inc.), and analyzing stained cells by flow cytometry (FACSort; Bectin-Dickinson, Inc.; Mountain View, Calif.). Cells that were annexin-V-negative and PI-negative were considered viable.

[5] = tested on: BP3 human B-cell lymphoma cell line; test: Annexin V-FITC and propidium iodide assay; type: cell-based; conditions: Homo sapiens, B-cell, read-out: EC50 BP3
[6] = tested on: Bax/Bak double knockout mouse embryonic fibroblast cells (MEF/DKO); test: FITC-Annexin V/PI cytotoxicity in Bax/Bak double knockout cells; type: cell-based; conditions: 10 μM
Plasma stability = type: in vitro ADME, rat; conditions: Table 6; rat plasma, 1 h
Method: Plasma Stability. A 20 μL aliquot of a 10 mM solution in DMSO of the test compound was added to 2.0 mL of heparinized rat plasma (Lampire, P1-150N) to obtain a 100 μM final solution. The mixture was incubated for 1 h at 37.5° C. Aliquots of 100 μL were taken (0, 30 min, 1 h) and diluted with 200 μL of MeOH containing internal standard.

[7] = Liver microsomal stability; type: in vitro ADME, rat; conditions: Table 6; rat liver microsomes, 1 h
Source text: Liver Microsomal Stability.

B6Bcl-2 transgenic mice = conditions: for Tox: Bcl-2 transgenic mouse, single ip injection 72 μmol/kg
Method: Transgenic mice expressing BCL-2 have been described as the B6 line. The BCL-2 transgene res a minigene version of a t(14;18) translocation in which the human BCL-2 gene is fused with the immunoglobulin heavy-chain (IgH) locus and associated IgH enhancer. The transgene was propagated on the Balb/c background.
After 24 hours, B6BCL2 mice were sacrificed by intraperitoneal injection of lethal dose of Avertin. Spleen was removed and weighed. […] Spleen tissue was fixed in z-FIX for 3 days and rinsed in PBS, and saved for histological analysis of spleen (H&E staining and TUNEL assay).

BCL-XL [8] = target: T1, BCL-XL; test: Competitive fluorescence polarization assay (FPA), Bak BH3 peptide; type: binding; design: 100 nM GST-BCL-XL ΔTM protein
Method: For competitive binding assays, 100 nM GST-BCL-XL ΔTM protein was preincubated with the tested compound at varying concentrations in 47.5 μL PBS (pH=7.4) in 96-well black plates at room temperature for 10 min, then 2.5 μL of 100 nM FITC-labeled Bak BH3 peptide was added to produce a final volume of 50 μL. The wild-type and mutant Bak BH3 peptides were included in each assay plate as positive and negative controls, respectively. […] IC50 was determined by fitting the experimental data to a sigmoidal dose-response nonlinear regression model (SigmaPlot 10.0.1, Systat Software, Inc., San Jose, Calif., USA). Data reported are mean of three independent experiments±standard error (SE). […] Fluorescence polarization was measured after 10 min.
Target sequence in this assay (Q07817 1-209 limits assumed): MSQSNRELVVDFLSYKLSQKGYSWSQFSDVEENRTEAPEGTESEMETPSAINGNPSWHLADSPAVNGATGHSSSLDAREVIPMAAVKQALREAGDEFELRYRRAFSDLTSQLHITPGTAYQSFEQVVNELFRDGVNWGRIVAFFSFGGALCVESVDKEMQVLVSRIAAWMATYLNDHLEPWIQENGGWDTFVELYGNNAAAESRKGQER

RS11846 cell line = test: Cell viability, ATP-LITE assay; type: cell-based; conditions: Homo sapiens, Table 9; read-out: RS11846 EC50 (ATP-LITE assay)
Method in brief: as §1

[9] = PAMPA cell membrane permeability; type: in vitro ADME; conditions: Table 11; Low/Medium, not defined
Source text: PAMPA is parallel artificial membrane permeation assay.

[10] = NCI-H1299, Table 9, read-out: H1299 EC50
[11] = NCI-H460, Table 9, read-out: H460 EC50
[12] = Table 9, read-out: RS11846 EC50 (Annexin V- and propidium iodide assay)
[13] = Table 9, read-out: FPA IC50 (BCL-XL)

Compound | IC50 (Bcl-2) | IC50 (Mcl-1) | IC50 (Bfl-1) | Kd (BCL-XL [2]) | MEF/DKO cells killed [6] | Plasma stability (T = 1 h) (Plasma stability) | Microsomal Stability (T = 1 h) [7] | Tox (B6Bcl-2 transgenic mice) | IC50 (BCL-XL [8]; read-out: IC50 FPA Bcl-XL) | 1D ^1H-NMR Binding Assay (BCL-XL) (BCL-XL [1]) | EC50 (H1299 cell line; [10]) | EC50 (PC3ML cells; Table 9, read-out: PC3ML EC50) | EC50 [3, 11] | EC50 (RS11846 cell line) | EC50 [4, 12] | Cell Permeability [9] | IC50 (BCL-XL [8]; [13]) | also measured
Cc1cc2c(CCc3ccccc3)c(O)c(O)cc2c(O)c1-c1c(C)cc2c(CCc3ccccc3)c(O)c(O)cc2c1O [Compound 12e, 3,3′-dimethyl-5,5′-diphenethyl-2,2′-binaphthyl-1,1′,6,6′,7,7′-hexaol] | 0.48 µM | 0.83 µM | 5 µM | 0.41 µM | 20-35% | 80% | 89% | 0 | 3.5 µM |  |  |  |  |  |  |  |  | 1D-^1H NMR (BCL-XL [1]; Table 4): +; EC50 (H1299 cell line; NCI-H1299, read-out: EC50 H1299): 0.58 µM; EC50 (PC3ML cells; read-out: EC50 PC3ML, ATP-LITE assay): 2.4 µM; EC50 ([3]; NCI-H460, read-out: EC50 H460): 0.92 µM; EC50 ([4]; read-out: EC50 RS11846, Annexin V-FITC and propidium iodide assay): 9.8 µM; EC50 [5]: 4.14 µM; signs of toxicity (B6Bcl-2 transgenic mice; 72 μmol/kg and even 120 μmol/kg): no significant signs of toxicity
Cc1cc2c(C(=O)NC(C)c3ccc(Cl)cc3)c(O)c(O)cc2c(O)c1-c1c(C)cc2c(C(=O)NC(C)c3ccc(Cl)cc3)c(O)c(O)cc2c1O (stereo not shown) [Compound 8k, N^5,N^5′-bis(1-(4-chlorophenyl)ethyl)-1,1′,6,6′,7,7′-hexahydroxy-3,3′-dimethyl-2,2′-binaphthyl-5,5′-dicarboxamide] | 0.49 µM | 0.23 µM | 0.4 µM | 0.11 µM | 20-35% | 94% | 71% | 4+ | 0.27 µM |  |  |  |  |  |  |  |  | 1D-^1H NMR (BCL-XL [1]; Table 3): +++; EC50 (H1299 cell line; NCI-H1299, heading: EC50 H1299, Table 3, ATP-LITE assay, read-out: EC50 H1299): 3.2 µM; EC50 (PC3ML cells; Table 3, ATP-LITE assay, heading: EC50 PC3ML, read-out: EC50 PC3ML): 5 µM; EC50 ([3]; NCI-H460, Table 3, ATP-LITE assay, read-out: EC50 H460): 0.5 µM; EC50 ([4]; Table 3, Annexin V-FITC and propidium iodide assay, heading: EC50 RS11846, read-out: EC50 RS11846): 5.5 µM; EC50 ([5]; heading: EC50 BP3, Table 3, Annexin V-FITC and propidium iodide assay): 1.5 µM; percentage of maximum reduction in spleen weight (maximal biological activity) (B6Bcl-2 transgenic mice; single ip 72 μmol/kg, maximum shrinkage no more than 50%): 85-95%; spleen weight reduction (B6Bcl-2 transgenic mice; single mouse, single ip 72 μmol/kg): more than 40%
Cc1cc2c(C(=O)c3nc4ccccc4s3)c(O)c(O)cc2c(O)c1-c1c(C)cc2c(C(=O)c3nc4ccccc4s3)c(O)c(O)cc2c1O [Compound XVII, (1,1′,6,6′,7,7′-hexahydroxy-3,3′-dimethyl-2,2′-binaphthyl-5,5′-diyl)bis(benzo[d]thiazol-2-ylmethanone)] |  |  |  |  |  |  |  |  |  | + | 5.8 µM | 5.2 µM | 1.4 µM | 2.9 µM | 7 µM | Medium | 0.14 to 0.45 µM | 
Cc1cc2c(C(=O)C3CCCC3)c(O)c(O)cc2c(O)c1-c1c(C)cc2c(C(=O)C3CCCC3)c(O)c(O)cc2c1O [Compound VI, (1,1′,6,6′,7,7′-hexahydroxy-3,3′-dimethyl-2,2′-binaphthyl-5,5′-diyl)bis(cyclopentylmethanone)] |  |  |  |  |  |  |  |  |  | + | 3.1 µM | 3.4 µM | 1.1 µM | 4 µM | 4.5 µM | Low | 0.45 µM | 
